Drawing on patent publication US9187472B2 (AbbVie Inc., priority 2012, dated 2015), this text covers IC50 for 25 compounds.

Bounds are passed on as bounds.

Assay [1] addresses NAMPT (human, recombinant, C-terminally His-tagged) (Homo sapiens, UniProt P43490). In words: Time-Resolved Fluorescence Resonance Energy Transfer (TR-FRET) Binding Assay of NAMPT. As to conditions: without substrates; 6.8 nM NAMPT, 200 nM probe, 3 hours equilibration. The gist of the method:
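11-pt half-log compound series; final 6.8 nM NAMPT, 200 nM OG488 nicotinamide-competitive probe, 1 nM Tb-anti-His Ab, 2% DMSO, HEPES pH 7.5/NaCl/MgCl2/DTT/glycerol buffer. 3 h RT equilibration. Em520/Em495 ratio (Ex 337 nm), control-normalized, 4-parameter fit → IC50.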

The target in another assay is NAMPT (Homo sapiens, UniProt P43490). In words: TR-FRET Binding Assay of NAMPT with PRPP. Particulars: with 200 μM PRPP and 2.5 mM ATP; 2 nM NAMPT, 2 nM probe, 16 hours equilibration. In a few lines:
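TR-FRET probe-displacement binding with 2 nM NAMPT, 2 nM probe and 1 nM Tb-anti-His antibody, run in the presence of 200 μM PRPP and 2.5 mM ATP at 2% DMSO. Equilibrated 16 hours before reading so test compounds could undergo enzymatic modification.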
Background: In TR-FRET formats the signal depends on donor and acceptor labels being close together.

The test system of a further assay is PC3 cells. In words: NAMPT Cell Proliferation Assay. Format: cell-based. Particulars: Homo sapiens, PC-3, 120 h, 5 days incubation, cell viability by Cell Titer Glo. The gist of the method: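 IC50 values derive from sigmoidal dose-response fits of percent inhibition of PC3 viability, measured by luminescence after 5 days of compound treatment. Cells (500/well, RPMI containing 10% heat-inactivated FBS) are allowed to attach overnight, and compounds are tested at 10-fold dilutions between 10 μM and 1×10^−5 μM.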

Chain of NAMPT (P43490 whole entry): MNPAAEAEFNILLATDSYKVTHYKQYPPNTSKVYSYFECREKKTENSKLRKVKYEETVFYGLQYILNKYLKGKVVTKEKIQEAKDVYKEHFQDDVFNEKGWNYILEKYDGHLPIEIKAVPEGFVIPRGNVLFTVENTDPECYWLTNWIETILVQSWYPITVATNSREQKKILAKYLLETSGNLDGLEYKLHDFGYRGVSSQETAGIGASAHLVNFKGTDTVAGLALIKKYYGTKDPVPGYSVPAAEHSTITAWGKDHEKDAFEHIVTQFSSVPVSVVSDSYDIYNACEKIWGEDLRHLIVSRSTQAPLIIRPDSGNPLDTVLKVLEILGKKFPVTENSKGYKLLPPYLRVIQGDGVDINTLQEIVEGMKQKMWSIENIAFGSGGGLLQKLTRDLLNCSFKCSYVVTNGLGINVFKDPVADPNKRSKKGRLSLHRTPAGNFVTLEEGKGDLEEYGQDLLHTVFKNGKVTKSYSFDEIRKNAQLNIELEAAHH
Chain of NAMPT (human, recombinant, C-terminally His-tagged) (P43490 whole entry): as above

Take `O=C(NCc1ccn2ccnc2c1)Nc1ccc(C2CCN(C(=O)CN3CCOCC3)C2)cc1` (stereo not drawn) [Example 392, 1-(imidazo[1,2-a]pyridin-7-ylmethyl)-3-{4-[1-(morpholin-4-ylacetyl)pyrrolidin-3-yl]phenyl}urea]: the IC50 is 814 nM in assay [1], 0.465 nM at NAMPT and 666 nM in the assay on PC3 cells.

`N#CC1(C(=O)N2CCC(c3ccc(C(=O)NCc4ccn5ccnc5c4)cc3)CC2)CC1` [Example 514, 4-{1-[(1-cyanocyclopropyl)carbonyl]piperidin-4-yl}-N-(imidazo[1,2-a]pyridin-7-ylmethyl)benzamide]: the concentration for half-maximal inhibition (IC50) stood at 368 nM in assay [1], 0.249 nM on NAMPT and 30.8 nM in the assay with PC3 cells.

In the case of `O=C(NCc1ccn2ccnc2c1)c1ccc(C(=O)NC[C@@H]2CCOC2)cc1` [Example 394, N-(imidazo[1,2-a]pyridin-7-ylmethyl)-N′-[(3S)-tetrahydrofuran-3-ylmethyl]benzene-1,4-dicarboxamide], the results for the IC50 (in assay [1]; on NAMPT; in the assay on PC3 cells) were over 10000 nM, 3.08 nM and over 10000 nM, respectively.

In the case of `CC1(Cn2cc(-c3ccc(C(=O)NCc4ccn5ccnc5c4)s3)cn2)CCN(C(=O)OC(C)(C)C)CC1` [Example 755, tert-butyl 4-[(4-{5-[(imidazo[1,2-a]pyridin-7-ylmethyl)carbamoyl]thiophen-2-yl]-1H-pyrazol-1-yl)methyl}-4-methylpiperidine-1-carboxylate], the IC50 in assay [1] was found to be 13 nM; at NAMPT it was 0.57 nM; with PC3 cells, 2.49 nM.

For the compound `CC1(C(=O)N2CCC(c3ccc(C(=O)NCc4cn5ccnc5cn4)cc3)CC2)CC1` [Example 814, N-(imidazo[1,2-a]pyrazin-6-ylmethyl)-4-{1-[(1-methylcyclopropyl)carbonyl]piperidin-4-yl}benzamide], the IC50 in assay [1] turned out to be 68.7 nM; at NAMPT it was 1.63 nM; in the assay on PC3 cells, 4.5 nM.

Turning to `O=C(NCc1ccn2ccnc2c1)Nc1ccc(C2CCN(C(=O)[C@@H]3CCCO3)CC2)cc1` [Example 288, 1-(imidazo[1,2-a]pyridin-7-ylmethyl)-3-(4-{1-[(2S)-tetrahydrofuran-2-ylcarbonyl]piperidin-4-yl}phenyl)urea], the IC50 in assay [1] turned out to be 49.5 nM; at NAMPT, 0.568 nM; in the assay on PC3 cells, 8.11 nM.

Take `CC(C)(C#N)Cn1cc(-c2ccc(C(=O)NCc3ccn4ccnc4c3)s2)cn1` [Example 577, 5-[1-(2-cyano-2-methylpropyl)-1H-pyrazol-4-yl]-N-(imidazo[1,2-a]pyridin-7-ylmethyl)thiophene-2-carboxamide]: the IC50 was found to be 18.9 nM in assay [1], 0.361 nM at NAMPT and 2.15 nM in the assay on PC3 cells.

For the compound `O=C(CCC1CCCC1)Nc1ccc(C(=O)NCc2ccc3nccn3c2)cc1` [Example 81, 4-[(3-cyclopentylpropanoyl)amino]-N-(imidazo[1,2-a]pyridin-6-ylmethyl)benzamide], the results for the IC50 (in assay [1]; at NAMPT; in the assay on PC3 cells) were 15.5 nM, 2.68 nM and 7.1 nM, respectively.

With `O=C(NCc1ccn2ccnc2c1)c1ccc(C2CCN(C(=O)c3ccc(F)cc3F)C2)s1` (stereo not drawn) [Example 772, 5-[1-(2,4-difluorobenzoyl)pyrrolidin-3-yl]-N-(imidazo[1,2-a]pyridin-7-ylmethyl)thiophene-2-carboxamide], the IC50 in assay [1] amounted to 61.5 nM; on NAMPT, 0.828 nM; in the assay on PC3 cells it was 2.4 nM.

Consider `CC(C)Cn1cc(-c2ccc(C(=O)NCc3ccc4nccn4c3)cc2)cn1` [Example 119, N-(imidazo[1,2-a]pyridin-6-ylmethyl)-4-[1-(2-methylpropyl)-1H-pyrazol-4-yl]benzamide], for which the IC50 in assay [1] was 942 nM; on NAMPT, 0.783 nM; in the assay on PC3 cells it was 146 nM.

Regarding `COc1ccc(C(=O)N2CCC(c3ccc(C(=O)NCc4ccn5ccnc5c4)cc3)CC2)cc1` [Example 528, N-(imidazo[1,2-a]pyridin-7-ylmethyl)-4-[1-(4-methoxybenzoyl)piperidin-4-yl]benzamide], the IC50 in assay [1] was found to be 126 nM; at NAMPT, 0.276 nM; in the assay on PC3 cells, 24 nM.

For the compound `O=C(NCc1ccn2ccnc2c1)c1cnc(-c2ccccc2)s1` [Example 361, N-(imidazo[1,2-a]pyridin-7-ylmethyl)-2-phenyl-1,3-thiazole-5-carboxamide], the IC50 is 5030 nM in assay [1], 1.94 nM on NAMPT and over 10000 nM in the assay on PC3 cells.

With `CC(C)C(=O)N1CCC(c2ccc(C(=O)NCc3cn4ccnc4cn3)cc2)CC1` [Example 811, N-(imidazo[1,2-a]pyrazin-6-ylmethyl)-4-[1-(2-methylpropanoyl)piperidin-4-yl]benzamide], the IC50 in assay [1] was found to be 99.8 nM; on NAMPT it was 2.86 nM; with PC3 cells, 11.4 nM.

On to `O=C(NCc1ccn2ccnc2c1)c1ccc(C2CCN(C(=O)Cc3ccccc3F)C2)s1` (stereo not drawn) [Example 765, 5-{1-[(2-fluorophenyl)acetyl]pyrrolidin-3-yl}-N-(imidazo[1,2-a]pyridin-7-ylmethyl)thiophene-2-carboxamide], for which the IC50 in assay [1] is 36.5 nM; on NAMPT it was 0.782 nM; with PC3 cells it was 2.91 nM.

As for `Cc1ccccc1C(=O)N1CC(c2ccc(C(=O)NCc3ccn4ccnc4c3)cc2)C1` [Example 644, N-(imidazo[1,2-a]pyridin-7-ylmethyl)-4-[1-(2-methylbenzoyl)azetidin-3-yl]benzamide], the IC50 in assay [1] stood at 81.7 nM; at NAMPT, 0.69 nM; in the assay with PC3 cells, 4.08 nM.

Take `O=C(NCc1ccn2ccnc2c1)c1ccc(C2CCN(C(=O)C3COCCO3)CC2)cc1` (stereo not drawn) [Example 233, 4-[1-(1,4-dioxan-2-ylcarbonyl)piperidin-4-yl]-N-(imidazo[1,2-a]pyridin-7-ylmethyl)benzamide]: the IC50 in assay [1] worked out at 495 nM; at NAMPT, 0.401 nM; in the assay with PC3 cells it was 9.37 nM.

With `CC(C)(C)OC(=O)N1CCC(c2ccc(C(=O)NCc3ccn4ccnc4c3)cc2)CC1` [Example 217, tert-butyl 4-{4-[(imidazo[1,2-a]pyridin-7-ylmethyl)carbamoyl]phenyl}piperidine-1-carboxylate], the IC50 was found to be 220 nM in assay [1], 0.2 nM at NAMPT and 3.42 nM in the assay on PC3 cells.

Consider `O=C(NCc1ccn2ccnc2c1)Nc1ccc(C2CCN(C(=O)[C@H]3CCOC3)CC2)cc1` [Example 286, 1-(imidazo[1,2-a]pyridin-7-ylmethyl)-3-(4-{1-[(3S)-tetrahydrofuran-3-ylcarbonyl]piperidin-4-yl}phenyl)urea], for which the IC50 in assay [1] was found to be 120 nM; on NAMPT, 0.412 nM; in the assay with PC3 cells it was 19.4 nM.

Take `CCOCC(=O)N1CC=C(c2ccc(NC(=O)Nc3ccc4nccn4c3)cc2)CC1` [Example 31, 1-{4-[1-(ethoxyacetyl)-1,2,3,6-tetrahydropyridin-4-yl]phenyl}-3-imidazo[1,2-a]pyridin-6-ylurea]: the values for the IC50 (in assay [1]; on NAMPT; in the assay with PC3 cells) were 739 nM, 0.311 nM and 107 nM, respectively.

On to `CC(C)[C@@H]1COC(=O)N1c1ccc(C(=O)NCc2ccn3ccnc3c2)s1` [Example 250, N-(imidazo[1,2-a]pyridin-7-ylmethyl)-5-[(4R)-2-oxo-4-(propan-2-yl)-1,3-oxazolidin-3-yl]thiophene-2-carboxamide], for which the IC50 worked out at 20.5 nM in assay [1], 0.23 nM on NAMPT and 0.675 nM with PC3 cells.

As for `COCCNC(=O)N(C[C@H]1CCCO1)c1ncc(C(=O)NCc2ccc3nccn3c2)s1` [Example 153, N-(imidazo[1,2-a]pyridin-6-ylmethyl)-2-{[(2-methoxyethyl)carbamoyl][(2R)-tetrahydrofuran-2-ylmethyl]amino}-1,3-thiazole-5-carboxamide], the IC50 was determined as 118 nM in assay [1], 1.88 nM on NAMPT and 3.73 nM with PC3 cells.

For the compound `O=C(CC1CCOCC1)Nc1ccc(C(=O)NCc2ccc3nccn3c2)cc1` [Example 79, N-(imidazo[1,2-a]pyridin-6-ylmethyl)-4-[(tetrahydro-2H-pyran-4-ylacetyl)amino]benzamide], the IC50 in assay [1] worked out at 121 nM; on NAMPT it was 6.97 nM; in the assay with PC3 cells, 7.45 nM.

Consider `CC(C)CC(=O)N1CCC(c2ccc(C(=O)NCc3ccn4ccnc4c3)s2)CC1` [Example 263, N-(imidazo[1,2-a]pyridin-7-ylmethyl)-5-[1-(3-methylbutanoyl)piperidin-4-yl]thiophene-2-carboxamide], for which the IC50 in assay [1] turned out to be 48.6 nM; on NAMPT it was 0.247 nM; in the assay on PC3 cells it was 2.43 nM.

With `N#Cc1ccc(CN(C(=O)CC2CCCC2)c2ccc(C(=O)NCc3ccc4nccn4c3)cc2)cc1` [Example 215, 4-[(4-cyanobenzyl)(cyclopentylacetyl)amino]-N-(imidazo[1,2-a]pyridin-6-ylmethyl)benzamide], the IC50 came to 2010 nM in assay [1], 3.04 nM on NAMPT and 686 nM in the assay on PC3 cells.

In the case of `CCOCC(=O)Nc1ccc(NC(=O)Nc2ccc3nccn3c2)cc1` [Example 39, 2-ethoxy-N-{4-[(imidazo[1,2-a]pyridin-6-ylcarbamoyl)amino]phenyl}acetamide], the IC50 in assay [1] was 814 nM; at NAMPT, 0.26 nM; with PC3 cells, 7280 nM.

For orientation: IC50 means the concentration needed to halve the response being measured.
